From US5734081A, “Arylthio compounds” (Warner-Lambert Company, priority 1995, dated 1998)

Legend:
[1] = CEM cell growth inhibition (XTT, noninfected cells); type: cell-based; settings: human, CEM Cell Assay, drug alone, read-out: IC50 (Inhibitory Concentration where drug alone inhibits cell growth)
Summary of the method: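 Uninfected CEM T4 lymphocytes were run alongside HIV-infected cultures. Compound in DMSO was diluted 1:200 in medium, then in half-log10 steps, and added to an equal volume of cells.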

HIV-1VIHU = assay: Anti-HIV activity, clinical isolate HIV-1VIHU in PBL; type: cell-based; settings: Human immunodeficiency virus 1
Protocol: (§1) The compounds of the invention were also evaluated against various other HIV strains and cell lines utilizing the assay methodology described above. The compounds were additionally evaluated against clinical isolates of HIV strains.

HIV-1IIIb = assay: Anti-HIV activity, HIV-1IIIb in MT-2 cells; type: cell-based; settings: Human immunodeficiency virus 1, MT2; MT-2, HIV-1IIIb
Protocol: as §1

HIV-1A17 [2] = assay: Anti-HIV activity, HIV-1A17 in MT-4 cells; type: cell-based; settings: Human immunodeficiency virus 1, MT4
Protocol: as §1

HIV-1 = assay: HIV H9 cell assay, anti-HIV-1 activity; type: cell-based; settings: Human immunodeficiency virus 1, H9, 168 h, read-out: EC50 (Effective Concentration which protects cells from viral cytopathic effects)
From the text: Another test system utilized to evaluate the invention compounds is called HIV H9 assay. The HIV H9 cell assay measures the inhibitor concentration required to suppress HIV-1 virus replication. In this system, viral growth occurs through multiple rounds of the life-cycle. Any suppression of the replication kinetics results in a geometric decrease in virus production. As a result, this assay is a sensitive means of measuring the ability of a compound to inhibit HIV-1 viral replication.
(§2) The H9 T-cell line is batch infected with HIV virus at an M0I of 0.01. After 2 hours absorption, the cells are washed, resuspended in RPMI-1640/10% fetal calf serum, and seeded at […] of a 96-well plate. A duplicate plate of uninfected H9 cells is prepared for the cytotoxicity assay. Drugs are serially diluted 1/3.16 in DMSO, transferred to media at an 8× concentration, and then added to the cultures in triplicate. The final DMSO concentration of 0.002 (0.2%).
(§3) Viral production is measured by RT assay and cytotoxicity is measured by XTT assay at 7 days post-infection. The RT assay is performed as a modification of Borroto-Esoda and Boone, J. Virol., 1991;65:1952-1959 and quantitated using a Molecular Dynamics Phosphoimager with Imagequant software. The XTT assay is performed as a modification of Roehm, et al., J. Immuno. Methods., 1991;142:257-265 and quantitated using a molecular Devices Thermomax plate reader with Softmax software.
(§4) Data is electronically transferred to a Microsoft Excell spreadsheet for analysis. The RT assay values equivalent to 50% and 90% inhibition of virus production are calculated from the untreated controls. The concentrations of inhibitor required to produce these values (IC50 and IC90) are interpolated from data points flanking these RT activities. The XTT assay values equivalent to 50% cytotoxicity are calculated from the untreated controls. The concentrations of inhibitor required to produce this value are interpolated from data points flanking these XTT values.

HIV-1BAKI = assay: Anti-HIV activity, clinical isolate HIV-1BAKI in PBL; type: cell-based
Protocol: as §1

[3] = H9 cell cytotoxicity (XTT assay, uninfected cells); type: cell-based; settings: human, drug alone, read-out: IC50 (Inhibitory Concentration where drug alone inhibits cell growth)
Protocol: as §2, §3, §4

HIV-1A17 [4] = assay: Anti-HIV activity, HIV-1A17 in MT-2 cells; type: cell-based; settings: Human immunodeficiency virus 1, MT2
Protocol: as §1

HIV-16R = assay: Anti-HIV activity, HIV-16R in MT-4 cells; type: cell-based, HIV-1; settings: Human immunodeficiency virus 1, MT4
Protocol: as §1

[5] = Human immunodeficiency virus 1, PBL

Row | Structure (SMILES) | CC50 [1] | EC50 (HIV-1VIHU) | EC50 (HIV-1IIIb) | EC50 (HIV-1A17 [2]) | EC50 (HIV-1) | EC50 (HIV-1BAKI; [5]) | CC50 at 168 h [3] | EC50 (HIV-1A17 [4]) | EC50 (HIV-1BAKI; PBL) | EC50 (HIV-16R)
1 | CC(=O)Nc1ccc(SSc2ccc(NC(C)=O)cc2C(N)=O)c(C(N)=O)c1 [Example 9, 2,2'-Dithiobis(5-acetylamino)benzamide] | > 120 µM | 5.2 µM | 9.4 µM | 2.4 µM | 1.7 µM | 1.8 µM | > 100 µM | – | – | –
2 | NS(=O)(=O)c1ccc(NC(=O)c2ccccc2SSc2ccccc2C(=O)Nc2ccc(S(N)(=O)=O)cc2)cc1 [Example 1] | > 120 µM | 3.6 µM | 2.6 µM | 0.6 µM | 0.7 µM | 0.3 µM | 36 µM | 0.6 µM | 0.25 µM | 1.9 µM
